Test results published in PubChem BioAssay (NCI).
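A five-concentration, 48-hour dose response in 96-well plates underlies each endpoint, interpolated linearly between surrounding concentrations. GI50: concentration for 50% inhibition of growth. TGI marks complete inhibition of growth.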

Columns and labels:
Test in all cases: growth of human tumour cells (NCI), 48 h
[1] = tested on: CAKI-1 renal
[2] = tested on: RPMI-8226 leukemia
[3] = tested on: EKVX NSCLC
[4] = tested on: MOLT-4 leukemia
[5] = tested on: OVCAR-3 ovarian
[6] = tested on: HS 578T breast
[7] = tested on: A549 NSCLC
[8] = tested on: UACC-62 melanoma
[9] = tested on: PC-3 prostate
[10] = tested on: SK-MEL-28 melanoma
[11] = tested on: K-562 leukemia
[12] = tested on: SW-620 colon
[13] = tested on: SN12C renal
[14] = tested on: BT-549 breast
[15] = tested on: U251 CNS
[16] = tested on: SK-OV-3 ovarian
[17] = tested on: SK-MEL-5 melanoma
[18] = tested on: OVCAR-5 ovarian
[19] = tested on: OVCAR-4 ovarian
[20] = tested on: HCT-15 colon
[21] = tested on: LOX IMVI melanoma
[22] = tested on: T-47D breast
[23] = tested on: DU-145 prostate
[24] = tested on: CCRF-CEM leukemia
[25] = tested on: OVCAR-8 ovarian
[26] = tested on: UACC-257 melanoma
[27] = tested on: NCI/ADR-RES ovarian
[28] = tested on: TK-10 renal

Work on Clc1ccc(-c2nc3c4c(-c5ccccc5)c(-c5ccccc5)n(Cc5ccccc5)c4ncn3n2)cc1 yielded a TGI [1] of 89.2 µM, a GI50 [2] of 2.46 µM and a TGI [2] of 8.69 µM. For the same compound, the GI50 [3] was 4.6 µM, the TGI [3] was 48.7 µM and the GI50 [4] was 11.7 µM. For the same compound, the TGI [4] was 58.2 µM, the GI50 [5] was 4.76 µM and the TGI [5] was greater than 100 µM. It also gave a GI50 [6] of 9.38 µM, a TGI [6] of 38.2 µM and a GI50 [7] of 20.6 µM. The TGI [7] was greater than 100 µM, the GI50 [8] was 3.59 µM and the TGI [8] was 15.2 µM. The GI50 [9] was 3.51 µM, the TGI [9] was 97.3 µM and the GI50 [10] was 5.33 µM. For the same compound, the TGI [10] was 47.1 µM, the GI50 [11] was 4.84 µM and the TGI [11] was greater than 100 µM. For the same compound, the GI50 [12] was 12.5 µM, the TGI [12] was greater than 100 µM and the GI50 [13] was 7.73 µM. It also gave a TGI [13] of 46 µM, a GI50 [14] of 4.35 µM and a TGI [14] of 22.5 µM. The GI50 [15] was 4.58 µM, the TGI [15] was 33.5 µM and the GI50 [16] was 12.8 µM. It also gave a TGI [16] of 46.7 µM, a GI50 [17] of 3.26 µM and a TGI [17] of 12.9 µM. The GI50 [18] was 21.3 µM, the TGI [18] was 90.3 µM and the GI50 [19] was 10.3 µM. For the same compound, the TGI [19] was greater than 100 µM, the GI50 [20] was 20.5 µM and the TGI [20] was greater than 100 µM. The GI50 [21] was 10.9 µM, the TGI [21] was 25.2 µM and the GI50 [22] was 3.5 µM. It also gave a TGI [22] of 62.5 µM, a GI50 [23] of 19.1 µM and a TGI [23] greater than 100 µM. It also gave a GI50 [24] of 9.15 µM, a TGI [24] of 51 µM and a GI50 [25] of 12.5 µM. For the same compound, the TGI [25] was greater than 100 µM, the GI50 [26] was 4.17 µM and the TGI [26] was 34.2 µM. For the same compound, the GI50 [27] was 24.2 µM, the TGI [27] was 97 µM and the GI50 [28] was 19 µM. It also gave a TGI [28] greater than 100 µM.
